From PubChem BioAssay (NCI)
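Interpolation was linear, between the two tested concentrations surrounding the appropriate level; five concentrations were tested over 48 hours in 96-well plates. The concentration for full growth arrest is given as TGI.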

Key:
Experiment in all cases: NCI tumour cell line growth inhibition, 48 h
A549 NSCLC = tested on: A549 NSCLC
ACHN renal = tested on: ACHN renal
BT-549 breast = tested on: BT-549 breast
HCC-2998 colon = tested on: HCC-2998 colon
HCT-116 colon = tested on: HCT-116 colon
HS 578T breast = tested on: HS 578T breast
IGROV1 ovarian = tested on: IGROV1 ovarian
OVCAR-8 ovarian = tested on: OVCAR-8 ovarian
RPMI-8226 leukemia = tested on: RPMI-8226 leukemia
SK-MEL-5 melanoma = tested on: SK-MEL-5 melanoma
U251 CNS = tested on: U251 CNS

SMILES | TGI (A549 NSCLC) | TGI (ACHN renal) | TGI (BT-549 breast) | TGI (HCC-2998 colon) | TGI (HCT-116 colon) | TGI (HS 578T breast) | TGI (IGROV1 ovarian) | TGI (OVCAR-8 ovarian) | TGI (RPMI-8226 leukemia) | TGI (SK-MEL-5 melanoma) | TGI (U251 CNS)
NCCCCN(CCCN)C(=O)OCc1ccccc1 | > 100 µM | > 100 µM | > 100 µM | > 100 µM | > 100 µM | > 100 µM | > 100 µM | > 100 µM | > 100 µM | > 100 µM | > 100 µM
CCOC(=O)C(C(N)=O)c1nc2cc([N+](=O)[O-])ccc2nc1/C=C(\O)c1ccc(C)cc1 (configuration not stated) | > 74.1 µM | > 52.6 µM | 51.4 µM | 62.7 µM | 55.4 µM | 75.1 µM | 43 µM | 40.1 µM | 40.6 µM | > 100 µM | 33.5 µM
Nc1nc(-c2ccccc2)cc(-c2ccc(F)cc2)c1-c1ccc(Cl)cc1 | > 100 µM | > 100 µM | > 100 µM | > 100 µM | > 100 µM | > 100 µM | > 100 µM | > 100 µM | > 100 µM | > 100 µM | > 100 µM
COc1cc(/C=C/C(=O)OC[C@]23O[C@H]2[C@@H](OC2OC(C)C(O)C(O)C2O)C2C=CO[C@@H](OC4OC(CO)C(O)C(O)C4O)C23)ccc1O (some centres not stated) | > 100 µM | > 100 µM | > 100 µM | > 100 µM | > 100 µM | > 100 µM | > 100 µM | > 100 µM | > 100 µM | > 100 µM | > 100 µM
NC(=O)c1ccc(N)nc1 | > 400 µM | > 400 µM | > 400 µM | > 400 µM | > 400 µM | > 400 µM | > 400 µM | > 400 µM | 201 µM | – | > 400 µM
COc1cc2[nH]c(=O)[nH]c2c2c(C)c[nH]c12 | > 100 µM | > 100 µM | > 100 µM | > 100 µM | > 100 µM | > 100 µM | > 100 µM | > 100 µM | > 100 µM | > 100 µM | > 100 µM
C(=C/c1ccc2nc(-c3ccc(/C=C/C=N/NC4=NCCCN4)cc3)cn2c1)/C=N/NC1=NCCCN1 | 22 µM | > 100 µM | > 100 µM | > 100 µM | > 100 µM | 42.2 µM | > 100 µM | 39 µM | > 100 µM | > 100 µM | > 100 µM
O=C(NCCc1ccc(F)cc1)c1cc(/C=C/c2cc(O)ccc2O)ccc1O | > 100 µM | 4.25 µM | 2.97 µM | 26 µM | 3.94 µM | > 100 µM | 7.66 µM | 13.6 µM | > 100 µM | 6.35 µM | 4.49 µM
